# In US20100055147A1, “ANGIOTENSIN (1-7) ELUTING STENT” (priority 2006, published 2010):
# How the values were obtained:
# [1] = tested on: neointima formation in the rat abdominal aorta; experiment: Neointima area in stented rat abdominal aorta (histology); format: in vivo
# Text: (§1) Specific pathogen-free, male Wistar rats (Harlan, Horst, Netherlands) were fed standard rat chow and water ad libitum. For Ang-(1-7) administration by minipump, 28 rats were used. The animals were anaesthetised with O2, N2O and isoflurane (Abbot B.V., Hoofddorp, Netherlands). In 20 animals, bare metal stents (Medtronic Driver® 2.5×8 mm stents) were placed in the abdominal aorta. Upon stent placement, osmotic minipumps (Model 2004, Alzet, Charles River, Maastricht, The Netherlands) were implanted subcutaneously for drug delivery via a catheter in the jugular vein. The pumps infused either Ang-(1-7) (Bachem, Well am Rhein, Germany) (24 μg/kg/h) (n=10) or saline (0.25 μl/h) (n=10). Furthermore, a control group underwent sham surgery (n=8: surgery identical to stent groups, but without balloon insertion and stenting), and received an osmotic minipump releasing saline. Treatment continued for four weeks. Five rats were excluded because of technical failure (aortic leakage or minipump failure) resulting in n=7 for Ang-(1-7) infusion, n=10 for saline infusion, and n-6 for sham-operated rats. […]
# To determine if Ang-(1-7) infusion by minipump or elution from the stent reduced neointima formation, neointima area was measured in animals which received Ang-(1-7) either by stent or minipump (Table 1).
# brachial artery = experiment: Small vessel myograph, brachial artery rings four weeks after stenting; format: in vivo, rat; details: minipump infusion
# Text: as §1, with “weeks.” for “weeks. Five rats were excluded because of technical failure (aortic leakage or minipump failure) resulting in n=7 for Ang-(1-7) infusion, n=10 for saline infusion, and n-6 for sham-operated rats.”
# (§2) Iliac and brachial arteries were prepared under a dissection microscope in Krebs solution that was kept at 4° C. […] After this, vessels were brought to tension in 20 μm steps until reaching a diameter corresponding to 100 mmHg transmural pressure (L100, calculated by exponential curve fitting with Excel software). […] All responses were recorded in grams tension. The responses to MeCh were expressed as the percent decrease in PE EC70 responses.
# [2] = tested on: isolated thoracic aorta rings; experiment: Organ bath, isolated thoracic aortic rings four weeks after stenting; format: in vivo, rat; details: minipump infusion, FIG. 5
# Text: Specific pathogen-free, male Wistar rats (Harlan, Horst, Netherlands) were fed standard rat chow and water ad libitum. For Ang-(1-7) administration by minipump, 28 rats were used. The animals were anaesthetised with O2, N2O and isoflurane (Abbot B.V., Hoofddorp, Netherlands). In 20 animals, bare metal stents (Medtronic Driver® 2.5×8 mm stents) were placed in the abdominal aorta. Upon stent placement, osmotic minipumps (Model 2004, Alzet, Charles River, Maastricht, The Netherlands) were implanted subcutaneously for drug delivery via a catheter in the jugular vein. The pumps infused either Ang-(1-7) (Bachem, Well am Rhein, Germany) (24 μg/kg/h) (n=10) or saline (0.25 μl/h) (n=10). Furthermore, a control group underwent sham surgery (n=8: surgery identical to stent groups, but without balloon insertion and stenting), and received an osmotic minipump releasing saline. Treatment continued for four weeks. Five rats were excluded because of technical failure (aortic leakage or minipump failure) resulting in n=7 for Ang-(1-7) infusion, n=10 for saline infusion, and n-6 for sham-operated rats.
# To test the effect of Ang-(1-7)-eluting stents (see Example 1 for details), 36 rats underwent placement of three types of stents into the abdominal aorta, bare metal stents, stents coated with polymer alone, or stents coated with polymer containing approximately 90 μg Ang-(1-7). Six rats were excluded because of technical failure during surgery, and three stents could not be processed due to incomplete polymerisation of embedding plastic (see below) leaving n=9 for bare metal stent, n=10 for stent with polymer only and n=8 for stent with polymer+Ang-(1-7).
# Twenty-eight days after stent implantation, the animals were anaesthetised with O2, N2O and isoflurane, and systemically heparinized with 500 IE intravenously (Leo Pharma B.V., Breda, The Netherlands). The stented abdominal aortas were harvested, fixed, embedded in methylmethacrylate, sectioned and stained for histological analysis as described previously. […]
# The stented aortas were evaluated in organ bath studies with isolated vascular rings. […] The endothelium-dependent vasodilation was assessed by a cumulative dose of metacholine (MeCh; 10 nM to 0.1 mM). […] The NO-dependent vasodilation to metacholine was calculated, by subtraction of the vasodilation in the presence of L-NMMA from the total vasodilation. The PG-dependent vasodilation in response to MeCh was calculated by subtraction of the vasodilation in the presence of L-NMMA and indomethacin from the vasodilation in the presence of L-NMMA. The EDHF-dependent vasodilation was determined by the vasodilation to metacholine in the presence of L-NMMA and indomethacin. […]
# [3] = tested on: rat bone marrow mononuclear cells (MNC) and endothelial progenitor cells (EPC); experiment: Cultured rat bone marrow mononuclear cells (MNC) and endothelial progenitor cells (EPC); format: cell-based; details: 10^−7 mol/L, 7 days of culture
# Description: Five rats were sacrificed by exsanguination under O2, N2O and isoflurane anaesthesia. Bone marrow was isolated from the left and right femurs by flushing the bone marrow cavity with sterile phosphate-buffered saline at room temperature (PBS, Gibco, Invitrogen, Breda, The Netherlands). From each individual rat, MNC were obtained by density gradient centrifugation at 2000 rpm (MSE Mistral 3000i, UK) for 20 minutes at room temperature according to manufacturer's instruction (Cedarlane Laboratories ltd., Hornby, Canada). Cells from individual rats were then resuspended in endothelial cell basal medium-2 (EGM; Cambrex Bioproducts, Clonetics, New Jersey, USA) containing supplemented 2% fetal bovine serum and EGM-2 SingleQuots (Clonetics). At day 1, 5×10^5 cells/well were seeded in 1% gelatin (225 bloom, Sigma-Aldrich, Zwijndrecht, The Netherlands) precoated 96-well culture plates (Costar, Corning, N.Y., USA) at 37° C. in a humidified incubator in the presence of 5% CO2. At day 3 of culture, medium with non-attached cells was removed, and replaced by fresh culture medium containing Ang-(1-7) at 10^−7 mol/L with or without antagonists (treatment medium). Next, cells were grown for 7 days, changing treatment medium at day 5 and day 7. At day 9, treatment medium was removed and culture medium supplemented with 10 μg/mL acetylated low-density lipoprotein (Dil-Ac-LDL) was added to the cells for 4 h. […]
# Detection of staining was performed with the use of fluorescence microscopy (Leica, Wetzlar, Germany) at a magnification of 200×. […] Cells were quantified with the use of ImagePro software (Media Cybernetics, Silver Spring, USA). In the occasion that the presence of cell clusters hindered proper digital quantification, cell numbers were assessed by hand. […]
# To this purpose MNC were isolated from rat bone marrow and cultured for 2 days to allow attachment. […] To determine if Ang-(1-7) preferentially stimulated EPC, the number of EPC was expressed as a percentage of the total population of MNC (FIG. 6B). […]
# iliac artery = experiment: Small vessel myograph, iliac artery rings four weeks after stenting; format: in vivo, rat; details: FIG. 3
# Text: as §1, with “weeks.” for “weeks. Five rats were excluded because of technical failure (aortic leakage or minipump failure) resulting in n=7 for Ang-(1-7) infusion, n=10 for saline infusion, and n-6 for sham-operated rats.”
# as §2
substance,measurement,setting,value
angiotensin-(1-7) (DRVYIHP; listed as Homo sapiens) [Ang-(1-7)],neointimal formation (in words),[1]; infusion using a minipump,reduction
same,Neointima area NIA,"[1]; minipump infusion 24 μg/kg/h for four weeks, bare metal stent in rat abdominal aorta, p < 0.05 vs. saline",0.51 ± 0.05 mm²
same,vasodilator function,"brachial artery; brachial artery (remote), FIG. 4",improved
same,vasoconstrictor responses to phenylephrine,"brachial artery; brachial artery, to the level of sham-operated rats",decreased
same,EDHF contribution to metacholine vasodilation,[2]; thoracic aorta,stimulated
same,NO release (contribution to metacholine vasodilation),[2]; thoracic aorta,did not alter
same,PG contribution to metacholine vasodilation,[2]; thoracic aorta,stimulated
same,Emax of total response on metacholine,[2]; stented group showed 40% decrease,full recovery
same,number of EPC,[3]; FIG. 6A,increased
same,number of MNC,[3]; FIG. 6A,increased
same,relative number of EPC (percentage of total MNC),[3]; FIG. 6B,increased
same,vasodilation upon stimulation with metacholine,"iliac artery; chronic infusion by minipump, iliac artery (downstream)",increased
same,vasoconstrictions (phenylephrine),"iliac artery; minipump infusion, iliac artery",remained equal
